Assay results: PubChem BioAssay (NCI)
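Briefly, cells in 96-well plates were exposed to five compound concentrations for 48 h, and endpoints were estimated by linear interpolation. Abbreviation: GI50, concentration required for 50% inhibition of growth. At the TGI there is no net growth.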 *1 amine or outer side, *2 acyl side, *3 side chain or, on linkers, in order; H or OH if unused. Where a SMILES comes first, the peptide text is derived from it. Bridges are numbered along the chain shown (N, C = ends). [ ]: non-standard residue; d: D form. The star is where a group is joined. X19 = O=C([C@H](N[*:1])c1ccc(O[C@H]2O[C@@H](CO)[C@@H](O)[C@@H](O)[C@H]2O[C@@H]2O[C@H](CO)[C@H](O)[C@H](O)[C@@H]2O)cc1)[*:2]; X18 = NC(=O)[C@@H](O[*:3])[C@H](N[*:1])C(=O)[*:2]; X20 = O=C([C@H](N[*:1])c1ccc(O)c(Cl)c1)[*:2]; d(aThr) = C[C@@H](O)[C@@H](N)C(=O)O; dHpg = N[C@@H](C(=O)O)c1ccc(O)cc1; X17 = CC(C)C/C=C/C=C/C(=O)*; dOrn = NCCC[C@@H](N)C(=O)O

Legend:
Test in all cases: growth of human tumour cells (NCI), 48 h
HT29 colon = tested on: HT29 colon
CAKI-1 renal = tested on: CAKI-1 renal
RPMI-8226 leukemia = tested on: RPMI-8226 leukemia
MCF7 breast = tested on: MCF7 breast
SNB-19 CNS = tested on: SNB-19 CNS
LOX IMVI melanoma = tested on: LOX IMVI melanoma
SF-268 CNS = tested on: SF-268 CNS
SNB-75 CNS = tested on: SNB-75 CNS
SK-MEL-5 melanoma = tested on: SK-MEL-5 melanoma
HOP-62 NSCLC = tested on: HOP-62 NSCLC
TK-10 renal = tested on: TK-10 renal
OVCAR-5 ovarian = tested on: OVCAR-5 ovarian
SN12C renal = tested on: SN12C renal
NCI-H460 lung = tested on: NCI-H460 lung
RXF 393 renal = tested on: RXF 393 renal
MDA-MB-231 breast = tested on: MDA-MB-231 breast
SK-MEL-28 melanoma = tested on: SK-MEL-28 melanoma
NCI/ADR-RES ovarian = tested on: NCI/ADR-RES ovarian
DU-145 prostate = tested on: DU-145 prostate
UACC-62 melanoma = tested on: UACC-62 melanoma
OVCAR-4 ovarian = tested on: OVCAR-4 ovarian
KM12 colon = tested on: KM12 colon
HOP-92 NSCLC = tested on: HOP-92 NSCLC
ACHN renal = tested on: ACHN renal
HL-60(TB) leukemia = tested on: HL-60(TB) leukemia
EKVX NSCLC = tested on: EKVX NSCLC
NCI-H522 lung = tested on: NCI-H522 lung
OVCAR-3 ovarian = tested on: OVCAR-3 ovarian
BT-549 breast = tested on: BT-549 breast
U251 CNS = tested on: U251 CNS
IGROV1 ovarian = tested on: IGROV1 ovarian
SR leukemia = tested on: SR leukemia
OVCAR-8 ovarian = tested on: OVCAR-8 ovarian
786-0 renal = tested on: 786-0 renal
SW-620 colon = tested on: SW-620 colon
T-47D breast = tested on: T-47D breast
MOLT-4 leukemia = tested on: MOLT-4 leukemia
MALME-3M melanoma = tested on: MALME-3M melanoma
SF-295 CNS = tested on: SF-295 CNS
HCT-15 colon = tested on: HCT-15 colon
K-562 leukemia = tested on: K-562 leukemia
MDA-MB-435 = tested on: MDA-MB-435
HCC-2998 colon = tested on: HCC-2998 colon
UACC-257 melanoma = tested on: UACC-257 melanoma
HS 578T breast = tested on: HS 578T breast
SK-OV-3 ovarian = tested on: SK-OV-3 ovarian
A549 NSCLC = tested on: A549 NSCLC
COLO 205 colon = tested on: COLO 205 colon
M14 melanoma = tested on: M14 melanoma
NCI-H23 lung = tested on: NCI-H23 lung
UO-31 renal = tested on: UO-31 renal
A498 renal = tested on: A498 renal
SF-539 CNS = tested on: SF-539 CNS
HCT-116 colon = tested on: HCT-116 colon
PC-3 prostate = tested on: PC-3 prostate
SK-MEL-2 melanoma = tested on: SK-MEL-2 melanoma

For `CC(C)C/C=C/C=C/C(=O)N[C@@H](CC(N)=O)C(=O)N[C@@H]1C(=O)N[C@H](c2ccc(O)cc2)C(=O)N[C@H](CCCN)C(=O)N[C@H]([C@@H](C)O)C(=O)N[C@H](c2ccc(O)cc2)C(=O)N[C@H](c2ccc(O)cc2)C(=O)N[C@H]([C@H](C)O)C(=O)N[C@H](Cc2ccccc2)C(=O)N[C@H](CCCN)C(=O)N[C@H](c2ccc(O[C@H]3O[C@@H](CO)[C@@H](O)[C@@H](O)[C@H]3O[C@@H]3O[C@H](CO)[C@H](O)[C@H](O)[C@@H]3O)cc2)C(=O)N[C@H]([C@H](C)O)C(=O)N[C@H](c2ccc(O)cc2)C(=O)NCC(=O)N[C@H](CC(C)C)C(=O)N[C@H](C)C(=O)N[C@H](c2ccc(O)c(Cl)c2)C(=O)O[C@@H]1C(N)=O` (X17-N[X18][dHpg][dOrn][d(aThr)][dHpg][dHpg][dT][dF][dOrn][X19][dT][dHpg]G[dL][dA][X20]; ester 2-C), the GI50 (HT29 colon) was 33.2 µM, the TGI (HT29 colon) was > 100 µM and the GI50 (CAKI-1 renal) was > 100 µM. The TGI (CAKI-1 renal) was > 100 µM, the GI50 (RPMI-8226 leukemia) was 59.8 µM and the TGI (RPMI-8226 leukemia) was > 100 µM. The GI50 (MCF7 breast) was 31.9 µM, the TGI (MCF7 breast) was 94.7 µM and the GI50 (SNB-19 CNS) was 23.9 µM. The TGI (SNB-19 CNS) was 55.4 µM, the GI50 (LOX IMVI melanoma) was 29.5 µM and the TGI (LOX IMVI melanoma) was > 100 µM. For the same compound, the GI50 (SF-268 CNS) was 34.2 µM, the TGI (SF-268 CNS) was > 100 µM and the GI50 (SNB-75 CNS) was 29.4 µM. The TGI (SNB-75 CNS) was 79.8 µM, the GI50 (SK-MEL-5 melanoma) was 22.1 µM and the TGI (SK-MEL-5 melanoma) was 44.6 µM. It also gave a GI50 (HOP-62 NSCLC) of 29.9 µM, a TGI (HOP-62 NSCLC) of 78.2 µM and a GI50 (TK-10 renal) of 38.7 µM. It also gave a TGI (TK-10 renal) of 91.1 µM, a GI50 (OVCAR-5 ovarian) of 27 µM and a TGI (OVCAR-5 ovarian) of 63.5 µM. For the same compound, the GI50 (SN12C renal) was > 100 µM, the TGI (SN12C renal) was > 100 µM and the GI50 (NCI-H460 lung) was 23.5 µM. For the same compound, the TGI (NCI-H460 lung) was 66.9 µM, the GI50 (RXF 393 renal) was 86 µM and the TGI (RXF 393 renal) was > 100 µM. The GI50 (MDA-MB-231 breast) was 16.1 µM, the TGI (MDA-MB-231 breast) was 39.6 µM and the GI50 (SK-MEL-28 melanoma) was 23.6 µM. The TGI (SK-MEL-28 melanoma) was 47.8 µM, the GI50 (NCI/ADR-RES ovarian) was 39.5 µM and the TGI (NCI/ADR-RES ovarian) was > 100 µM. For the same compound, the GI50 (DU-145 prostate) was 37.4 µM, the TGI (DU-145 prostate) was > 100 µM and the GI50 (UACC-62 melanoma) was 21.2 µM. The TGI (UACC-62 melanoma) was 45.1 µM, the GI50 (OVCAR-4 ovarian) was 39.2 µM and the TGI (OVCAR-4 ovarian) was > 100 µM. For the same compound, the GI50 (KM12 colon) was 27.8 µM, the TGI (KM12 colon) was > 100 µM and the GI50 (HOP-92 NSCLC) was 80 µM. The TGI (HOP-92 NSCLC) was > 100 µM, the GI50 (ACHN renal) was 68.7 µM and the TGI (ACHN renal) was > 100 µM. For the same compound, the GI50 (HL-60(TB) leukemia) was > 100 µM, the TGI (HL-60(TB) leukemia) was > 100 µM and the GI50 (EKVX NSCLC) was 50.6 µM. For the same compound, the TGI (EKVX NSCLC) was > 100 µM, the GI50 (NCI-H522 lung) was 33.9 µM and the TGI (NCI-H522 lung) was > 100 µM. For the same compound, the GI50 (OVCAR-3 ovarian) was 46.5 µM, the TGI (OVCAR-3 ovarian) was > 100 µM and the GI50 (BT-549 breast) was 37.6 µM. The TGI (BT-549 breast) was 87.1 µM, the GI50 (U251 CNS) was 24.1 µM and the TGI (U251 CNS) was 55 µM. The GI50 (IGROV1 ovarian) was > 100 µM, the TGI (IGROV1 ovarian) was > 100 µM and the GI50 (SR leukemia) was > 100 µM. For the same compound, the TGI (SR leukemia) was > 100 µM, the GI50 (OVCAR-8 ovarian) was 46.8 µM and the TGI (OVCAR-8 ovarian) was > 100 µM. For the same compound, the GI50 (786-0 renal) was 25 µM, the TGI (786-0 renal) was 56.7 µM and the GI50 (SW-620 colon) was 26.2 µM. It also gave a TGI (SW-620 colon) of 74.8 µM, a GI50 (T-47D breast) of 34.6 µM and a TGI (T-47D breast) of 98.9 µM. For the same compound, the GI50 (MOLT-4 leukemia) was 31.7 µM, the TGI (MOLT-4 leukemia) was > 100 µM and the GI50 (MALME-3M melanoma) was 29.7 µM. It also gave a TGI (MALME-3M melanoma) of 65.5 µM, a GI50 (SF-295 CNS) of 15.8 µM and a TGI (SF-295 CNS) of 46.1 µM. The GI50 (HCT-15 colon) was 30.3 µM, the TGI (HCT-15 colon) was > 100 µM and the GI50 (K-562 leukemia) was 36.3 µM. The TGI (K-562 leukemia) was > 100 µM, the GI50 (MDA-MB-435) was 26 µM and the TGI (MDA-MB-435) was 72.8 µM. For the same compound, the GI50 (HCC-2998 colon) was 57.2 µM, the TGI (HCC-2998 colon) was > 100 µM and the GI50 (UACC-257 melanoma) was 21.9 µM. It also gave a TGI (UACC-257 melanoma) of 47.4 µM, a GI50 (HS 578T breast) of 27.8 µM and a TGI (HS 578T breast) of 82.1 µM. The GI50 (SK-OV-3 ovarian) was 25.3 µM, the TGI (SK-OV-3 ovarian) was 64.9 µM and the GI50 (A549 NSCLC) was > 100 µM. The TGI (A549 NSCLC) was > 100 µM, the GI50 (COLO 205 colon) was 37.8 µM and the TGI (COLO 205 colon) was > 100 µM. The GI50 (M14 melanoma) was 38.4 µM, the TGI (M14 melanoma) was > 100 µM and the GI50 (NCI-H23 lung) was 25.8 µM. The TGI (NCI-H23 lung) was 88.9 µM, the GI50 (UO-31 renal) was > 100 µM and the TGI (UO-31 renal) was > 100 µM. For the same compound, the GI50 (A498 renal) was 80.9 µM, the TGI (A498 renal) was > 100 µM and the GI50 (SF-539 CNS) was 22.8 µM. The TGI (SF-539 CNS) was 60.9 µM, the GI50 (HCT-116 colon) was 32.9 µM and the TGI (HCT-116 colon) was > 100 µM. For the same compound, the GI50 (PC-3 prostate) was 44 µM, the TGI (PC-3 prostate) was > 100 µM and the GI50 (SK-MEL-2 melanoma) was > 100 µM. For the same compound, the TGI (SK-MEL-2 melanoma) was > 100 µM.
